In patent US8642657B2 (Gruenenthal GmbH, priority 2003, dated 2014):

Tests used:
rat VR1 [1] = molecular target: T1, rat VR1 (Rattus norvegicus, UniProt O35433); conditions: rat VR1 expressed in CHO cells; cited from earlier work
T1 construct: expressed in transfected cells

rat VR1 [2] = molecular target: T1, rat VR1; assay: [3H]resiniferatoxin (RTX) competition binding assay, VR1-transfected CHO cells
Procedure, shortened: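 Competition with [3H]RTX (50-100 pM) ran 60 min at 37° C using whole VR1-induced CHO cells in BSA-containing DPBS, nonspecific defined by 100 nM cold RTX. After centrifugation, pellet radioactivity counted by scintillation; Hill fits gave Ki and cooperativity.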

rat VR1 [3] = molecular target: T1, rat VR1; assay: 45Ca2+-uptake assay in CHO/VR1 cells, antagonism of capsaicin-stimulated uptake; assay type: cell-based; conditions: 45Ca2+ uptake stimulated by 50 nM capsaicin
[4] = competition with [3H]RTX, rat VR1 in CHO cells, read-out: Ki (nM) Binding Affinity

T1 sequence (O35433 whole entry): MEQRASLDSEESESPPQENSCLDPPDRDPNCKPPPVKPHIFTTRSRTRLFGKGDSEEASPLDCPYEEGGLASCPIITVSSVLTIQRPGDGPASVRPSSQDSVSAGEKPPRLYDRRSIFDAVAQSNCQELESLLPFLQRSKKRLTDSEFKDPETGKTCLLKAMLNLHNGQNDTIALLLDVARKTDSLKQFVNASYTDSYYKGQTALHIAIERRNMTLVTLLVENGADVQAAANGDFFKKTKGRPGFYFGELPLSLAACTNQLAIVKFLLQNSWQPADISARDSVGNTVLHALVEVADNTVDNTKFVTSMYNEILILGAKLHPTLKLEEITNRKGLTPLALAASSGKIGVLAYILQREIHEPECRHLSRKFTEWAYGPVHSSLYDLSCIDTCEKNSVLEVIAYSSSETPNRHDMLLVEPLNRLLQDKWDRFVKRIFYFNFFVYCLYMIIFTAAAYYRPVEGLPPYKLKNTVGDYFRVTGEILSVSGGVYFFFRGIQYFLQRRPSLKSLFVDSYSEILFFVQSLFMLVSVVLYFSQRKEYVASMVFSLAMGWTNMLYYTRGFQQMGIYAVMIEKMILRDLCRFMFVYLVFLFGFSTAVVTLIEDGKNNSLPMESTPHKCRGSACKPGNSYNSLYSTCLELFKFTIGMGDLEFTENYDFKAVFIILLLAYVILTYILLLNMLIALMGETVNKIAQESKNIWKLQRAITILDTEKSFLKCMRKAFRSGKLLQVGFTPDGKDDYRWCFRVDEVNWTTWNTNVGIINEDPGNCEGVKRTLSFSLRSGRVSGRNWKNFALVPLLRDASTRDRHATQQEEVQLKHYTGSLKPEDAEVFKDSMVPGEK

Cc1ccc(CC(CNC(=S)NCc2ccc(NS(C)(=O)=O)cc2)COC(=O)C(C)(C)C)cc1C (stereo not shown) [Compound 1, N-[2-(3,4-dimethylbenzyl)-3-pivaloyloxypropyl]-N′-[4-(methylsulfonylamino)benzyl]thiourea]
agonism/antagonism character (rat VR1 [1]): partial agonism

CC(C(=O)NCc1ccc(C(C)(C)C)cc1)c1ccc(NS(C)(=O)=O)cc1 (stereo not shown) [2-7, N-(4-tert-Butylbenzyl)-2-[4-(methylsulfonylamino)phenyl]propionamide]
Ki (rat VR1 [2]; [4]): 105 nM
melting point: 77 to 79 °C
Ki (rat VR1 [3]): 17.5 nM

Cc1ccc(CCCNC(=O)C(C)(C)c2ccc(NS(C)(=O)=O)cc2)cc1C [9-4, N-[3-(3,4-Dimethylphenyl)propyl]-2-[4-(methylsulfonylamino)phenyl]-2-methylpropionamide]
Ki (rat VR1 [2]): 1700 nM
melting point: 138 to 139 °C
Ki (rat VR1 [3]): 573 nM

COc1cc(C(C)C(=O)NCc2ccc(C(C)(C)C)cc2)ccc1NS(C)(=O)=O (stereo not shown) [1-65, N-(4-tert-Butylbenzyl)-2-[3-methoxy-4-(methylsulfonylamino)phenyl]propionamide]
Ki (rat VR1 [2]; [4]): 536 nM
melting point: 74 to 76 °C
Ki (rat VR1 [3]): 232 nM
